In US7553837B2, “Phenylazole compounds production process and antioxidants” (Nippon Soda Co., Ltd., priority 2003, dated 2009):

Legend:
[1] = system: abnormal behavior and fatality due to ferrous chloride; test: In vivo antioxidative activity: ferrous chloride administration into spinal subarachnoid cavity of mice; set-up: species or system Slc:ICR male mice; conditions: score after 60 minutes; for In vivo antioxidation action 50% inhibitory concentration (ID50), Intraperitoneal administration: intraperitoneal administration 30 minutes before ferrous chloride into spinal canal; for In vivo antioxidation action 50% inhibitory concentration (ID50), Oral administration: oral administration 30 minutes before ferrous chloride into spinal canal
Procedure: An in vivo antioxidative activity of the compounds of the present invention was evaluated from an abnormal behavior due to administration of ferrous chloride into spinal subarachnoid cavity of mice as well as an inhibitory effect of a fatality rate according to the process described in J. Med. Chem., 1997, Vol. 40, p. 559-573. Using Slc:ICR male mice (one group: 3 to 7 mice, 5 weeks old) (available from Nippon SLC Co., Ltd.), 5 μl of a 50 mM ferrous chloride physiological saline solution was administered to the spinal canal through the space between the fifth lumbar vertebrae and the sixth lumbar vertebrae. 20 to 60 minutes after administration of ferrous chloride, symptoms were observed and a score after 60 minutes was determined from symptoms shown in Table 32. […] As is apparent from the results, the compounds of the present invention have an in vivo antioxidation action.

[2] = system: lipid peroxidation activity of each tissue homogenate (brain, heart and kidney); test: Tissue migration properties: ex vivo lipid peroxidation inhibition in brain, heart and kidney homogenates; conditions: SD male rats, 100 mg/kg intraperitoneally, 30 minutes after administration; for Ex vivo lipid peroxidation inhibition inhibition ratio (%) Brain: brain homogenate; for Ex vivo lipid peroxidation inhibition inhibition ratio (%) Heart: heart homogenate; for Ex vivo lipid peroxidation inhibition inhibition ratio (%) Kidney: kidney homogenate
Procedure: (§1) An in vitro lipid peroxidation inhibition of the compounds of the present invention was evaluated by measuring a lipid peroxidation activity in a rat brain homogenate according to a process of Malvy, c., et al., Biochemical and Biophysical Research Communications, 1980, Vol. 95, p. 734-737. That is, a rat brain was extracted and a 5-fold amount of an aqueous phosphoric acid buffered saline solution (pH 7.4) (hereinafter abbreviated to PBS) was added to the brain under ice cooling, followed by homogenization using a Teflon homogenizer and further centrifugation at 10,000 g for 20 minutes to prepare a brain homogenate as a supernatant. To the brain homogenate thus prepared, 500 μM cysteine, 5 μM sulfuric acid monobasic iron and 100 mM KCl were added, followed by incubation at 37° C. for 30 minutes. Malondialdehyde produced by the […] of lipid peroxidation was measured by a thiobarbituric acid process.
Tissue migration properties of the compounds of the present invention were evaluated by measuring an ex vivo lipid peroxidation inhibition. A solution or suspension prepared by dissolving or suspending each of test compounds in an aqueous physiological saline solution or a 1% poly oxy ethylene hydrogenated castor oil (NIKKOL HCO-60, manufactured by Nikko Chemicals Co., Ltd.) physiological saline solution was intraperitoneally administered to SD male rats (one group: 3 rats, 6 weeks old) (available from Nippon SLC Co., Ltd.) at a dose of 100 mg/kg. 30 Minutes after administration, rats were bled to death by cutting the carotid artery and then the brain, heart and kidney were extracted. A lipid peroxidation activity of each tissue homogenate was measured by the process described in Example 18. An inhibition ratio in each tissue of the compounds of the present invention was determined from the amount of lipid peroxidation produced of a control group (physiological saline administration group) and a test compound administration group.

[3] = system: lipid peroxidation in retina homogenate; test: Retina migration properties: ex vivo retinal lipid peroxidation production inhibition; format: in vivo; conditions: SD male rats, retina taken after 30 minutes
Procedure: Retina migration properties of the compounds of the present invention were evaluated. To SD male rats (one group: 3 rats, 6 weeks old), a solution or suspension prepared by dissolving or suspending each of the test compounds in a 0.1N hydrochloric acid solution or a 1% poly oxy ethylene hydrogenated castor oil (NIKKOL HCO-60) solution was orally administered. After 30 minutes, both eyes were extracted and the retina was separated under ice cooling. A 5% homogenate solution of the retina was prepared in a 0.1M tris-hydrochloric acid buffer (pH 7.4) under ice cooling using a polytron homogenizer for a trace amount (NS-310E: manufactured by Nichion Irika Kiki Co., Ltd.) and, after autoxidation at 37° C. for one hour, the amount of lipid peroxidation produced was determined by a thiobarbituric acid process (MASUGI et al., vitamin 51, 21-29, 1977). A 30% inhibitory dose (ID30) was determined from the inhibition ratio at each dose. As is apparent from the results, the compounds of the present invention have an ex vivo retinal lipid peroxidation production inhibitory action and is also excellent in retina migration properties.

[4] = system: lipid peroxidation activity in a rat brain homogenate; test: In vitro lipid peroxidation inhibition (rat brain homogenate, thiobarbituric acid process); format: biochemical; conditions: read-out: In vitro lipid peroxidation inhibition 50% inhibitory concentration (IC50 μM), 500 μM cysteine, 5 μM sulfuric acid monobasic iron, 100 mM KCl, 37° C. for 30 minutes
Procedure: as §1

5-lipoxygenase (5-LO) = biological target: T1, 5-lipoxygenase (5-LO) (Homo sapiens, UniProt P09917); test: 5-lipoxygenase (5-LO) inhibitory activity, leukotriene B4 production in human peripheral blood mononuclear cells; format: cell-based; conditions: for 5-LO, percentage given after >10: bracketed value beside IC50 >10 μM, not explained, presumably inhibition at 10 μM; for IC50: human peripheral blood mononuclear cells, A23187, leukotriene B4 production
T1 construct: human peripheral blood mononuclear cells and each of test compounds dissolved in DMSO (final concentration: 1%) were preincubated; endogenous in cells; host or cells: human peripheral blood mononuclear cells
T1 sequence (P09917 1-674): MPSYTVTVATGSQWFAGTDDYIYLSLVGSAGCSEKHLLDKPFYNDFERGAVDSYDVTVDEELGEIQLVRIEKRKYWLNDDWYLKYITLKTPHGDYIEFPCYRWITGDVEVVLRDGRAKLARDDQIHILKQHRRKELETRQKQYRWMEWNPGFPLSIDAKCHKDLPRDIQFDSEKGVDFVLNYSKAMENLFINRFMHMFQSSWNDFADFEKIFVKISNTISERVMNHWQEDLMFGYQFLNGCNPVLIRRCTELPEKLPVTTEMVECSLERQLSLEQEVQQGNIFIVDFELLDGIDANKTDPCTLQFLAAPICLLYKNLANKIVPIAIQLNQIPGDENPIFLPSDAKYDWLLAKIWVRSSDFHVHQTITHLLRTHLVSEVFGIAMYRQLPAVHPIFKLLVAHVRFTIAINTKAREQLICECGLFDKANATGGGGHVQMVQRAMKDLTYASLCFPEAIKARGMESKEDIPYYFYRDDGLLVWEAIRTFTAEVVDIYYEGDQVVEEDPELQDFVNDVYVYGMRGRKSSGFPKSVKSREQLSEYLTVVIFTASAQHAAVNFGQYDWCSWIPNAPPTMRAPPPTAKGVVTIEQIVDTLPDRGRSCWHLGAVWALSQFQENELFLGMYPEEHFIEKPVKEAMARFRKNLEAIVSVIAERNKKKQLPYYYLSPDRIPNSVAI
Procedure: A 5-LO inhibitory activity was measured by a partially modified process of a process of Carter et al. (Carter G. W, et al, J. Pharmacol. Exp. Ther.: 256, 929-37, 1991). That is, human peripheral blood mononuclear cells and each of test compounds dissolved in DMSO (final concentration: 1%) were preincubated (37° C., 15 minutes) in a Hanks' balanced salt solution and 30 μM A23187 was further added, followed by incubation (37° C., 30 minutes). The amount of leukotriene B4 produced as a result of incubation was determined by enzyme immunoassay and a 50% production inhibitory concentration (μM) against 5-LO of each test compound was calculated.

[5] = Acute oral toxicity, single oral dose, mortality rate after 7 days; conditions: mouse, in vivo, male mice, observed for 7 days
Procedure: A single dose of each of the compounds of the present invention was orally administered to male mice. After observing for 7 days, a mortality rate was determined.

[6] = biological target: T2, 15-LO obtained from reticulocyte of rabbit (Oryctolagus cuniculus, UniProt P12530); test: 15-lipoxygenase (15-LO) inhibitory activity, 15-HETE production; format: biochemical; conditions: 15-LO from reticulocyte of rabbit, linoleic acid
T2 construct: 15-LO obtained from reticulocyte of rabbit; from tissue; host or cells: rabbit reticulocytes
T2 sequence (P12530 1-663): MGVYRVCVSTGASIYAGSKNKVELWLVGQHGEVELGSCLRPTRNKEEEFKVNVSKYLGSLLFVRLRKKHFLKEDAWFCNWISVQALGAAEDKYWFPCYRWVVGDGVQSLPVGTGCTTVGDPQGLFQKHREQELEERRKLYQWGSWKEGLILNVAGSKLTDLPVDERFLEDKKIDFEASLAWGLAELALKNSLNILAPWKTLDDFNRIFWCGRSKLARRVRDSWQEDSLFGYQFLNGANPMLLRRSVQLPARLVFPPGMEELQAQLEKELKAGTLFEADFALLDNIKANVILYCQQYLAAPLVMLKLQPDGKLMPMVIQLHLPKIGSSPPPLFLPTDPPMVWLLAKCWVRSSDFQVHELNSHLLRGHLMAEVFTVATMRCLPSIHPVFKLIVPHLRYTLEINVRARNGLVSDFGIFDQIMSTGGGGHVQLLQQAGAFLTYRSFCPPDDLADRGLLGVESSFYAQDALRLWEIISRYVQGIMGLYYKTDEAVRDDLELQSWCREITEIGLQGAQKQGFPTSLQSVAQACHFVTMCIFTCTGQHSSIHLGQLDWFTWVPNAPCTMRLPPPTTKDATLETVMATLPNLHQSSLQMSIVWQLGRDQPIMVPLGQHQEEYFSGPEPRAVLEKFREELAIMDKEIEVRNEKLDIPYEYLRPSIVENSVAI
Procedure: A 15-LO inhibitory activity was measured by a partially modified process of a process of Auerbach et al. (Auerbach B. J, et al., Anal. Biochem.: 201, 375-80, 1992). That is, 15-LO obtained from reticulocyte of rabbit and each of test compounds dissolved in DMSO (final concentration: 1%) were preincubated (4° C., 15 minutes) in phosphoric acid buffer (pH 7.4) and 256 μM linoleic acid was further added, followed by incubation (4° C., 10 minutes). The amount of 15-HETE produced as a result of incubation was determined by spectrophotometry (OD660nm) and 50% production inhibitory concentration (μM) against 15-LO of each test compound was calculated. Compounds (R-3) and (R-4) (edaravone) of the following formulas were used as a control drug.

melting point [°C]	SMILES	In vivo antioxidation action 50% inhibitory concentration (ID50), Intraperitoneal administration [1] [mg/kg]	In vivo antioxidation action 50% inhibitory concentration (ID50), Oral administration [1] [mg/kg]	Ex vivo lipid peroxidation inhibition inhibition ratio (%) Brain [2] [%]	Ex vivo lipid peroxidation inhibition inhibition ratio (%) Heart [2] [%]	Ex vivo lipid peroxidation inhibition inhibition ratio (%) Kidney [2] [%]	Lipid peroxidation inhibition 30% inhibitory concentration (ID30, oral administration) in ex vivo retina [3] [mg/kg]	IC50 [4] [µM]	5-LO, percentage given after >10 (5-lipoxygenase (5-LO)) [%]	IC50 (5-lipoxygenase (5-LO)) [nM]	LD50 at 7 days [5] [mg/kg]	IC50 [6] [µM]
	Cc1c(C)c2c(c(C)c1N)CC(C)(CN1CCN(c3ccc(-n4ccnc4)cc3)CC1)O2 (racemic) [Compound B-1-2, 4-(±)-(5-amino-2,4,6,7-tetramethyldihydrobenzofuran-2-ylmethyl)-1-(4-imidazol-1-ylphenyl)piperazine]	27	13	79	93	89	5.7					
	Cc1c(C)c2c(c(C)c1N)CC(C)(C(=O)N1CCN(c3ccc(-n4ccnc4)cc3)CC1)O2 (racemic) [Compound B-1-1, (±)-(5-amino-2,4,6,7-tetramethyldihydrobenzofuran-2-yl)-[4-(4-imidazol-1-ylphenyl)-piperazin-1-yl]carboxamide]	4.4	19	96	88	95						
	Cc1c(C)c2c(c(C)c1O)CCC(C)(C(=O)Nc1ccc(-n3ccnc3)cc1)O2 (stereo not drawn) [Compound R-2, reference compound]	20	53	45	57	84		0.23				
	Cc1c(C)c2c(c(C)c1N)CC(C)(CN1CCC(c3ccccc3)CC1)O2 (stereo not drawn) [Compound R-3, reference compound]								34	> 10000	< 300	3.26
	Cc1c(C)c2c(c(C)c1N)CC(C)(CNc1ccc(-c3ccn[nH]3)cc1)O2 (racemic) [Compound B-2-5-1, 4-(±)-(5-amino-2,4,6,7-tetramethyldihydrobenzofuran-2-ylmethylamino)-phenyl-5-1H-pyrazole]	16	17	96	88	88		0.42		160	> 2000	1.4
	Cc1c(C)c2c(c(C)c1O)CC(C)(C(=O)Nc1ccc(-n3ccnc3)cc1)O2 (stereo not drawn) [Compound R-1, reference compound]	>30	>30	68	59	75		0.23				
	CC1=NN(c2ccccc2)C(=O)C1 [Compound R-4, edaravone]								32	> 10000		5.57
205 to 207	Cc1c(C)c2c(c(C)c1N)CC(C)(CN1CCN(c3ccc(-c4ccn[nH]4)cc3)CC1)O2 (stereo not drawn) [Compound B-1-34]									162		5.56
